Where a name gives a salt, the structure may show the parent alone. Read-outs that look alike come from different tables or passages of the source.
Experiments:
[1] = about pH 5-8, preferably about pH 6-7
[2] = Kinetics of hydrolysis of PNHDA, dependence on pH and Ni2+; assay type: physicochemical; parameters: K / K': unit not given here
Procedure: The rates of hydrolysis of p-nitrophenyl(hydroxyimino)-(dihydroxyphosphinyl)acetate (16) were determined with Shimadzu UV-260 spectrophotometer by monitoring appearance of thep-nitrophenol at 400 nm (pH 6-11) and 317 nm (pH 4-5) and disappearance of reactant (16) at 217 nm (pH 4-5). The product spectra were quantitatively identified with those of equivalent concentration of p-nitrophenol under the same conditions. Reaction mixture pH values were measured. at 25 and 50° C. with a Beckman Model 71 pH meter. For non-metal ion-assisted reactions, a few buffer solutions were prepared with EDTA (2×10^-5) as a precaution against trace metal ions in the buffer and salts, but the same results were obtained as with the non-EDTA-containing buffers. Buffers employed were acetate (pH 4.2-5.3), N-ethyl morpholine (pH 6.7-7.8), and borate (pH 8-11). The buffer concentrations were 0.02-0.01 M (no significant catalytic effect). The ionic strength was 0.5-1.0 M, maintained with NaCl.
To initiate a kinetic run, 50-100 μl of 19 stock solution (0.002 M in H2 O) was injected into 2-3 ml of reactant solution maintained at the desired temperature. The reactions followed pseudo-first-order kinetics for at least 3 half-lives. Kinetic parameters were calculated with a linear least-squares computer program.

[3] = Stability / hydrolysis-fragmentation of E-16 (anilinium salt E-19) in water; assay type: physicochemical; settings: for half-life: read-out: t1/2 of decomposition in H2O (converted)
Procedure: Stability of E-19. These experiments were carried out in 5 mm glass NMR tubes at 22° C., concentration of E-4 0.1% (w/v).

[4] = Kinetic measurements of hydrolysis (release of p-nitrophenoxide), effect of Mg2+; assay type: physicochemical; settings: for enhancement of hydrolysis rate by MgCl2 (factor): 0.2 M MgCl2, pH 8.5, 25° C.
Text: Kinetic Measurements of the Hydrolysis of E-19.

[5] = Stability of DCHA+ salts 3 heated in different solvents (31P NMR); assay type: physicochemical; settings: conditions similar to refluxing AN
Procedure: Stability of DCHA^+ Salts 3 Heated in Different Solvents. 40 mg 3 (E or Z) was heated in 5 ml of alcohol mixture, H2 O or acetonitrile. Reaction progress was monitored by ^31 P NMR spectroscopy.

O=C(O)/C(=N\O)P(=O)(O)O [E-7, α-(hydroxyimino)phosphonoacetic acid]
phosphorylating activity [1]: active phosphorylating agent

COP(=O)(O)/C(=N/O)C(=O)O [E-8, (E)-(hydroxyimino)(hydroxymethoxyphosphinyl)acetic acid]
stability in water (about pH 7, about 24 hours, room temperature): stable
methyl phosphate formed (pH 1.5): 15%
methyl phosphorocyanidate formed (pH 1.5): 85%
rate of E-8→Z-8→15 relative to dissociative fragmentation (pH 1.5): about 6 ×
decomposition (pH 1.5, over 2.5 hours): quantitatively decomposed
reactivity (pH 7, 25° C.): unreactive

O=C(Oc1ccc([N+](=O)[O-])cc1)/C(=N\O)P(=O)(O)O [E-16, p-nitrophenyl (E)-(dihydroxyphosphinyl)(hydroxyimino)acetate]
enhancement of rate by Ni2+ (factor) ([2]; 0.01M Ni2+, pH 4.2): 3
enhancement of Kobsd by Ni2+ (factor) ([2]; 0.01M Ni2+, pH 6.5): 28
enhancement of Kobsd by Ni2+ (factor) ([2]; 0.01M Ni2+, pH 7.4): 20
Ni2+ concentration with saturation effect on Kobsd ([2]; constant pH): 7 mM
K ([2]; pH 4.2, Ni = 0.01M, 50° C.): 0.015
log (k) ([2]; pH 4.2, Ni = 0.01M, 50° C.): -1.824
K ([2]; pH 4.2, no metal ion, 50° C.): 0.0049
log (k) ([2]; pH 4.2, no metal ion, 50° C.): -2.311
K ([2]; pH 5.2, no metal ion, 50° C.): 0.0156
K' ([2]; pH 5.2, no metal ion, 50° C.): 0.0165
log (K') ([2]; pH 5.2, no metal ion, 50° C.): -1.78
log (k) ([2]; pH 5.2, no metal ion, 50° C.): -1.807
K ([2]; pH 6.5, Ni = 0.01M, 50° C.): 0.31
log (k) ([2]; pH 6.5, Ni = 0.01M, 50° C.): -0.509
K ([2]; pH 6.5, no metal ion, 50° C.): 0.011
K' ([2]; pH 6.5, no metal ion, 50° C.): 0.009
log (K') ([2]; pH 6.5, no metal ion, 50° C.): -2.05
log (k) ([2]; pH 6.5, no metal ion, 50° C.): -1.959
K ([2]; pH 7.4, Ni = 0.01M, 50° C.): 1.127
K' ([2]; pH 7.4, Ni = 0.01M, 50° C.): 1.1
log (K') ([2]; pH 7.4, Ni = 0.01M, 50° C.): 0.041
log (k) ([2]; pH 7.4, Ni = 0.01M, 50° C.): 0.052
K ([2]; pH 7.4, no metal ion, 50° C.): 0.0563
K' ([2]; pH 7.4, no metal ion, 50° C.): 0.0605
log (K') ([2]; pH 7.4, no metal ion, 50° C.): -1.22
log (k) ([2]; pH 7.4, no metal ion, 50° C.): -1.249
K ([2]; pH 8.5, no metal ion, 25° C.): 0.052
K' ([2]; pH 8.5, no metal ion, 25° C.): 0.05635
log (K') ([2]; pH 8.5, no metal ion, 25° C.): -1.249
log (k) ([2]; pH 8.5, no metal ion, 25° C.): -1.288
K ([2]; pH 9, no metal ion, 25° C.): 0.101
K' ([2]; pH 9, no metal ion, 25° C.): 0.101
log (K') ([2]; pH 9, no metal ion, 25° C.): -0.996
log (k) ([2]; pH 9, no metal ion, 25° C.): -0.997
K ([2]; pH 9.5, no metal ion, 25° C.): 0.33
K' ([2]; pH 9.5, no metal ion, 25° C.): 0.33
log (K') ([2]; pH 9.5, no metal ion, 25° C.): -0.481
log (k) ([2]; pH 9.5, no metal ion, 25° C.): -0.481
K ([2]; pH 10, no metal ion, 25° C.): 0.629
K' ([2]; pH 10, no metal ion, 25° C.): 0.603
log (K') ([2]; pH 10, no metal ion, 25° C.): -0.22
log (k) ([2]; pH 10, no metal ion, 25° C.): -0.201
K ([2]; pH 11, no metal ion, 25° C.): 1.2
K' ([2]; pH 11, no metal ion, 25° C.): 1.249
log (K') ([2]; pH 11, no metal ion, 25° C.): 0.0966
log (k) ([2]; pH 11, no metal ion, 25° C.): 0.079
hydroxide dependence of hydrolysis ([2]; pH<7): independent of hydroxide ion concentrations
hydroxide dependence of hydrolysis ([2]; pH>8): hydroxide ion catalyzed
slope of log Kobsd vs pH ([2]; pH>8): 0.8
phosphate among products ([3]; pH 6.5): 92%
phosphorocyanidate among products ([3]; pH 6.5): 8%
phosphate among products ([3]; pH 8.5): 80%
phosphorocyanidate among products ([3]; pH 8.5): 20%
phosphoric acid and methyl phosphate, total ([3]; pH 8.5, 1:1 water:methanol): 34%
formation of phosphorocyanidate ([3]; pH 8.5, presence of Mg2+): not observed
hydrolysis rate in words ([3]; pH 8.5, presence of Mg2+): faster
phosphate among products ([3]; pH about 3, 52 hr): 100%
degraded at 52 h ([3]; water, pH 3, pH about 3, 52 hr, read-out: decomposition in H2O): < 4%
half-life ([3]; water, pH 6.5): ~30 h
half-life ([3]; water, pH 8.5): ~1 h
rate of release of p-nitrophenoxide vs. p-nitrophenyl acetate (times faster) ([4]; 0.2 M MgCl2): 40 ×
enhancement of hydrolysis rate by MgCl2 (factor) [4]: 2.5 (±0.1)
rate of release of p-nitrophenoxide vs. p-nitrophenyl acetate (times faster) ([4]; pH 8.5, 25° C., no Mg2+): 20 ×
acceleration of p-nitrophenyl ester hydrolysis by (E)-oxime group ([4]; qualitative): several orders of magnitude

O=C(Oc1ccc([N+](=O)[O-])cc1)/C(=N\O)P(=O)(O)O [E-19, Anilinium Salt of p-Nitrophenyl (E)-(Hydroxyimino)(dihydroxyphophinyl)acetate]
storage stability ([3]; anilinium salt, storage): stable to storage
reaction order of hydrolysis ([4]; pH 8.5, 25° C.): pseudo-first order

COP(=O)(O)C(=NO)c1ccccc1 [methyl α-(hydroxyimino)benzylphosphonate anion, reference compound]
thermal stability [5]: thermally stable

CC(=O)Oc1ccc([N+](=O)[O-])cc1 [p-nitrophenyl acetate, reference compound]
enhancement of hydrolysis rate by MgCl2 (factor) [4]: not altered significantly
reaction order of hydrolysis ([4]; pH 8.5, 25° C.): pseudo-first order

— patent US5948931A (priority 1997, dated 1999)
